Test [1] deals with HCN cells. Put plainly: in vitro neuronal differentiation of HCN cells (morphology, Tuj1 staining). Format: cell-based, rat. The settings on record: for morphologic neuronal differentiation of NPCs: 25 μM AMPA or 50 μM Muscimol; for effect of inhibitor on Isx-9 neurogenic activity (Tuj1+ cells): Isx-9-treated HCN cells, KN93 2 d cultures.
The test system of test [2] is MEF2 reporter gene (3XMRE-luc). Put plainly: MEF2 reporter gene (3XMRE-luc) assay in HCN cells. Format: cell-based, rat. Conditions: Isx-9-treated HCN cells; KN93, KN92 5 μM (10, 5, 1 μM), G66976 200 nM.
A further test concerns neuroD-luciferase. Description: neuroD-luciferase reporter gene assay in HCN cells. It is filed as cell-based, rat. The settings on record: for effect of inhibitor on neuroD-luc activity of Isx/Isx-9-treated cells: inhibitor added to Isx/Isx-9-treated HCNs/NPCs, 24 h.
The test system of a further test is HDAC5. Description: protein blotting of phospho-HDAC5, HDAC4 and phospho-CaMKII in HCN cells. Format: cell-based, rat. The settings on record: Isx/Isx-9-treated NSCs; KN93, KN92 5 μM.
The subject of the next test is pHDAC5:14-3-3-luciferase. Description: mammalian 2-hybrid luciferase assay (pHDAC5:14-3-3-luciferase). Format: cell-based, rat. Conditions: Isx-9-treated NSCs. The procedure: FIGS. 5A-F—CaMK is the major HDAC kinase activated by Isx small-molecules in NSCs. […] The doses of KN93 and KN92 in reporter assays were 10, 5, and 1 μM. (FIG. 5D) A schematic diagram of a mammalian 2-hybrid luciferase assay system (pHDAC5:14-3-3-luciferase) which is dependent on the interaction of HDAC5 and 14-3-3. […] (FIG. 5E) Shown are representative images and quantification of the percentage of Isx-9-treated HCNs showing GFP-HDAC5 localization in nuclear (Nuc), cytoplasmic (Cyto), or both compartments (Nuc/Cyto) with and without KN93 or KN92 treatment after 24 h. […] Scale bar: 5 μm. Values in […] represent the average of 12 replicates±SD. Values in FIG. 5E represent the average of 2 replicates+SD of one representative experiment from two independent experiments.
Reporter gene assay. All reporter gene assays were done in 96-well format, and each data point represents the average of 12 replicates. Reporter genes included neuroD-, gIuR2-, MREx3-, NR1-, and pHDAC5:14-3-3-luciferase and each well contained ˜25,000 cells in a volume of 100 μl. 5×10^6 HCN cells were transfected with 5 μg DNA by electroporation (Amaxa) and plated in growth media overnight. In the case of pHDAC5:14-3-3-luciferase, cells were transfected with 2 μg of each plasmid. Compounds were added the day following transfection and luciferase assays were performed 24 or 48 h later. […]

The subject of test [3] is HCN cells. Put plainly: RT-PCR and protein blotting of gene expression in HCN cells. Format: cell-based, rat. The settings on record: NPCs, 50 μM Muscimol.
The next test relates to Nkx2.5-luc. Put plainly: Nkx2.5-luc reporter in P19CL6 clone #5-1. It is filed as cell-based, mouse. The source says:
Assay development. An Nkx2.5-luc transgene was constructed by replacing the two coding sequence exons of NRx2.5 locus from the ATG with the coding sequence of luc (from pGL3-basic vector, Promega) in an ˜180,000 base pair-long BAC (FIG. 11). The recombinant BAC DNA was introduced into pluripotent P19CL6 cells using Lipofectamine-2000 (Invitrogen) and neo^R clones were selected, and tested for chemically inducible luc activity with sodium butyrate (NaB). #5-1, a clonal stem cell line with low basal and at least a 4-fold higher NaB-inducible luciferase activity compared to vehicle control (DMSO), yielding a Z′ value of 0.7 in 384-well plate format (Zhang et al. 1999), was chosen for the HTS.

Test [4] deals with HCN cells. Put plainly: cell death in HCN cells (propidium iodide/Hoescht live staining). Format: cell-based, rat. Conditions: 2 μM Q-VD-Oph. On the procedure: Neural stem cell culture, in vitro differentiation, and CaMK inhibitor studies. The hippocampal neural stem/progenitor (NSC) line used in this study (HCN cells) were originally isolated from adult (8-10 wks old) female Fisher 344 rats and have been characterized previously (Gage et al., 1995; Palmer et al., 1997). HCN cells were cultured in DMEM:F12 (Omega Scientific) with N2 supplement (Invitrogen) and basic fibroblast growth factor (20 ng/ml FGF-2) (PeproTech). The mouse whole brain neural stem/progenitors (MWB) were derived from adult (8-10 wks old) C57BL/6 mice that have been characterized previously (Ray and Gage, 2006). […]
Immunostaining, GFP-HDAC5 visualization, and fluorescence microscopy. […] Quantification of cell phenotype was done by sampling 6-8 random fields in each well and counting a total of 250-500 cells at 20× magnification. […] For quantification of live/dead cells, images were taken of cultures live-stained with propidium iodide and Hoescht 33342 at 20× magnification, and 500-1000 cells were counted by sampling 6-8 random fields in each well. For quantification of HDAC5 subcellular localization, 20× images were taken of live cultures, and 40-50 GFP+ cells were counted by sampling 3 random fields in each well. […]

The structures appear in SMILES notation. Entries after “also recorded” stand apart in the source; their conditions may differ.

As to `Cc1onc(O)c1CC(N)C(=O)O` (stereo not drawn) [AMPA, α-amino-3-hydroxy-5-methyl isoxazole-4-proprionic acid], the “morphologic neuronal differentiation of NPCs” value with HCN cells [1] is reported as “failed to induce morphologic neuronal differentiation”.
Regarding `Cn1c2ccccc2c2c3c(c4c5ccccc5n(CCC#N)c4c21)CNC3=O` [Isx G66976], the “effect of kinase inhibitor on Isx-9-mediated MEF2 reporter activation” value (from here on “effect of kinase inhibitor”) in test [2] is on record as “did not significantly affect Isx-induced reporter gene expression; also recorded: completely ineffective”. For the same compound, in the test on neuroD-luciferase, the “effect of inhibitor on neuroD-luc activity of Isx/Isx-9-treated cells” value (“effect of inhibitor … of Isx/Isx-9-treated cells” for short) is listed as “did not significantly affect Isx-induced reporter gene expression”. Further, the “effect of inhibitor on phospho-HDAC5 and phospho-CaMKII levels” value with HDAC5 was “did not”.
On to `COc1ccc(S(=O)(=O)Nc2ccccc2CN(C)C/C=C/c2ccc(Cl)cc2)cc1` [KN92], for which, in test [2], the “effect of kinase inhibitor” value was “had no effect”. Besides, the “HDAC5 kinase activity (pHDAC5:14-3-3-luciferase)” value in the test with pHDAC5:14-3-3-luciferase is listed as “not”. Further, the “effect of inhibitor on phospho-HDAC5 and phospho-CaMKII levels” value in the test on HDAC5 was “had no effect”.
As to `COc1ccc(S(=O)(=O)N(CCO)c2ccccc2CN(C)C/C=C/c2ccc(Cl)cc2)cc1` [KN93], in test [2], the “effect of kinase inhibitor” value is recorded as “extremely effective in blocking Isx-mediated reporter gene expression; also recorded: blocked Isx-9-mediated MEF2 reporter activation”. The “HDAC5 kinase activity (pHDAC5:14-3-3-luciferase)” value with pHDAC5:14-3-3-luciferase is given as “completely blocked HDAC5 kinase activity”. Besides, the “effect of inhibitor on Isx-9 neurogenic activity (Tuj1+ cells)” value with HCN cells [1] is “resulted in an inhibition of Isx-9 neurogenic activity”. In addition, the “effect of inhibitor … of Isx/Isx-9-treated cells” value in the test with neuroD-luciferase was “extremely effective in blocking Isx-mediated reporter gene expression”. In the test with HDAC5, the “effect of inhibitor on phospho-HDAC5 and phospho-CaMKII levels” value was “blocked HDAC5 phosphorylation; also recorded: decreased phospho-HDAC5 and active phospho-CaMKII levels”.
For `C[C@]12N[C@H](Cc3ccccc31)c1ccccc12` [MK801], the “effect of inhibitor … of Isx/Isx-9-treated cells” value in the test with neuroD-luciferase is listed as “small but significant decrease; also recorded: attenuated neuroD-luc activity”.
For `NCc1cc(O)no1` [Muscimol, 5-aminomethyl-3-hydroxy-isoxazole], the GluR2/3 protein expression entry with HCN cells [3] is recorded as “increase”. In addition, in the test with HCN cells [1], the “morphologic neuronal differentiation of NPCs” value is recorded as “failed to induce morphologic neuronal differentiation”. Also, in the test with neuroD-luciferase (NPCs, 15 μM Muscimol), the neuroD-luciferase activity entry was “an increase in neuroD-luciferase activity”.
Regarding `CCCC(=O)[O-].[Na+]` [NaB, sodium butyrate], the “inducible luciferase activity compared to vehicle control (DMSO)” value in the test on Nkx2.5-luc is recorded as ≥ 4 fold.
For `CC(C)[C@H](NC(=O)c1ccc2ccccc2n1)C(=O)N[C@@H](CC(=O)O)C(=O)COc1c(F)cccc1F` [Q-VD-Oph], the “effect of inhibitor on Isx-9 neurogenic activity (Tuj1+ cells)” value in the test with HCN cells [1] is recorded as “does not further increase Tuj1+ cells”. Further, the “cell death in Isx-9-treated HCNs” value with HCN cells [4] is listed as “blocks cell death”.

The values are drawn from patent US8193225B2, “Isoxazole amides, derivatives and methods of chemical induction of neurogenesis” (priority 2006, dated 2012).
